Reference: article PMC10722499, “Consumption of Roasted Coffee Leads to Conjugated Metabolites of Atractyligenin in Human Plasma” (Journal of Agricultural and Food Chemistry, 2023)
Where two headings read alike, the source gives them in different places.

Assay: Human coffee intervention study: plasma concentrations after roasted coffee brew by UPLC-MS/MS
Type: in vivo
Conditions: for samples above the LLOQ: n = 10; for concentration at 1 h / concentration at 4 h / concentration at 10 h: human, plasma
Experimental: The study included ten volunteers (5 females, 5 males) (age: 28.3 ± 2.3 years; BMI: 21.89 ± 2.22 kg/m^2). The intervention study took place from November 5, 2021, to February 17, 2022, in the core facility human studies of the ZIEL Institute for Food and Health of the Technical University of Munich. The study was performed in agreement with the Declaration of Helsinki, and all participants gave written informed consent. The study was approved by the Ethics Committee of the Technical University of Munich (5798/13 S-SR) and registered in the German Register of Clinical Studies (DRKS00005083).
The study participants underwent a dietary protocol that excluded all forms of coffee consumption. Additionally, chocolate, black/green/white, mate tea, cola, energy drinks, and beauty products containing caffeine (e.g., shampoos, creams) were prohibited 1 week before the test day. Furthermore, the study participants received a standardized meal the evening before the test day. The meal was composed of pasta, margarine, and salt, and the amount of energy was calculated based on the participant’s basal energy demand. On the morning of the test day, the participants were in a fastened state and received water (control samples) or coffee brew (coffee intervention) as breakfast. Blood was sampled before coffee intake (0 h) and at defined time points (1, 4, and 10 h) after coffee intake. 6 h after the coffee intake, the participants received lunch, the same standardized meal as the previous dinner. The administered coffee was prepared from a coffee capsule (Nespresso, ROMA) with 100 mL water. The administered volume of the coffee brew was 200 mL. Based on the coffee powder per capsule ([…]), the concentrations of 2 (2.8 μmol/g) and 3 (1.1 μmol/g), respectively,[10] and an estimated extraction rate of 100%, the total ingested amounts were 33.6 μmol (2) and 13.2 μmol (3).
In an Eppendorf tube (1.5 mL), aliquots (50 μL each) of the calibration standard, sample, or QC, respectively, were mixed with the IS solution (1000 nM in ethanol, 50 μL) and acetonitrile/ethanol (9 + 1, v + v, 50 μL) was added. After vortexing, suspensions were cleared by centrifugation (12,000 rpm, 4 °C, 10 min), and the supernatant (∼100 μL) was transferred to an HPLC vial with 200 μL insert for analysis (5 μL injection).
The UPLC–MS/MS system consisted of a Shimadzu Nexera X2 UPLC system (Shimadzu, Duisburg, Germany) hyphenated to a QTrap 5500 MS/MS system (Sciex, Darmstadt, Germany) operating in negative electrospray (ESI^–) mode with the following ion source parameters: ion spray voltage: −4500 V; source temperature: 500 °C; nebulizer gas: 55 psi; heater gas: 65 psi; and curtain gas: 35 psi. The MS/MS parameters, including the collision cell entrance potential (CEP), declustering potential (DP), collision energy (CE), and cell exit potential (CXP), were tuned for each compound and mass transition and are summarized in Supporting Table S3. The dwell time for each compound was 30 ms, and the total cycle time was 0.75 s. Chromatographic separation was achieved on a C18 column (Kinetex C18, 100 mm × 2.1 mm, 1.7 μm, Phenomenex, Aschaffenburg, Germany) at a flow rate of 500 μL/min flow rate. Eluent A was 0.1% formic acid in water, and eluent B was 0.1% formic acid in acetonitrile. B was kept at 3% (1 min), increased to 25% (in 3 min), 90% (in 2 min, 1 min isocratic), and 3% (0.5 min, 2.5 min isocratic). The total time of the analysis was 10 min. The column effluent was introduced from the waste to the MS/MS system between 3 and 7 min.
We applied this method to human plasma samples from a coffee intervention study to investigate the appearance of coffee compounds 1–3 and metabolites M1–M3. Ten participants underwent a washout period (7 days) and then consumed one dose of […]. Blood samples were taken at baseline (0 h) and 1, 4, and 10 h after the intervention. […]

- plasma level at baseline (0 h, before coffee intake, human plasma): no peaks were detected
- plasma concentration, mean ± SD (4 h after coffee brew (200 mL), human plasma, values above LLOQ): 11.7 ± 10.7 nM
- samples above the LLOQ (4 h after coffee): 80%
- plasma concentration, mean ± SD (10 h after coffee brew (200 mL), human plasma, values above LLOQ): 13.1 ± 5.8 nM
- samples above the LLOQ (10 h after coffee): 90%
- concentration at 1 h (both sexes, oral, 200 mL, 1 h after coffee brew (200 mL), human plasma, values above LLOQ, read-out: plasma concentration, mean ± SD): 25.1 ± 4.9 nM
- concentration at 4 h (both sexes, oral, 200 mL, 4 h after coffee brew (200 mL), human plasma, values above LLOQ, read-out: plasma concentration, mean ± SD): 14.2 ± 10.5 nM
- concentration at 10 h (both sexes, oral, 200 mL, 10 h after coffee brew (200 mL), human plasma, values above LLOQ, read-out: plasma concentration, mean ± SD): 14.4 ± 4.4 nM
- Cmax (both sexes, oral, human plasma after coffee brew (200 mL), n = 10, mean ± SD, read-out: estimated cmax in plasma): 25.1 ± 4.9 nM
- time of estimated cmax (human plasma after coffee brew (200 mL), sampling only at 0, 1, 4, 10 h): 1 h
- concentration at 4 h (oral, 200 mL coffee brew, participant xrwz, 4 h after coffee, b = below LLOQ, read-out: plasma concentration, individual): 1.7 nM
- concentration at 1 h (oral, 200 mL, participant ayia, 1 h after coffee, read-out: plasma concentration, individual): 16.4 nM
- concentration at 4 h (oral, 200 mL, participant ayia, 4 h after coffee, b = below LLOQ, read-out: plasma concentration, individual): 1.7 nM
- concentration at 10 h (oral, 200 mL, participant ayia, 10 h after coffee, read-out: plasma concentration, individual): 17.2 nM
- concentration at 1 h (oral, 200 mL, participant cbdu, 1 h after coffee, b = below LLOQ, read-out: plasma concentration, individual): 24.6 nM
- concentration at 4 h (oral, 200 mL, participant cbdu, 4 h after coffee, read-out: plasma concentration, individual): 2.9 nM
- concentration at 10 h (oral, 200 mL, participant cbdu, 10 h after coffee, read-out: plasma concentration, individual): 17.8 nM
- concentration at 1 h (oral, 200 mL, participant eogo, 1 h after coffee, b = below LLOQ, read-out: plasma concentration, individual): 30 nM
- concentration at 4 h (oral, 200 mL, participant eogo, 4 h after coffee, b = below LLOQ, read-out: plasma concentration, individual): 4.6 nM
- concentration at 10 h (oral, 200 mL, participant eogo, 10 h after coffee, b = below LLOQ, read-out: plasma concentration, individual): 12.3 nM
- concentration at 1 h (oral, 200 mL, participant ggot, 1 h after coffee, read-out: plasma concentration, individual): 32.2 nM
- concentration at 4 h (oral, 200 mL, participant ggot, 4 h after coffee, b = below LLOQ, read-out: plasma concentration, individual): 9.7 nM
- concentration at 10 h (oral, 200 mL, participant ggot, 10 h after coffee, b = below LLOQ, read-out: plasma concentration, individual): 1.7 nM
- concentration at 1 h (oral, 200 mL, participant imhz, 1 h after coffee, read-out: plasma concentration, individual): 30.6 nM
- concentration at 4 h (oral, 200 mL, participant imhz, 4 h after coffee, read-out: plasma concentration, individual): 10.5 nM
- concentration at 10 h (oral, 200 mL, participant imhz, 10 h after coffee, read-out: plasma concentration, individual): 21.5 nM
- concentration at 1 h (oral, 200 mL, participant mgjj, 1 h after coffee, read-out: plasma concentration, individual): 23.6 nM
- concentration at 4 h (oral, 200 mL, participant mgjj, 4 h after coffee, read-out: plasma concentration, individual): 12.4 nM
- concentration at 10 h (oral, 200 mL, participant mgjj, 10 h after coffee, read-out: plasma concentration, individual): 17.5 nM
- concentration at 1 h (oral, 200 mL, participant rrmk, 1 h after coffee, read-out: plasma concentration, individual): 22 nM
- concentration at 4 h (oral, 200 mL, participant rrmk, 4 h after coffee, b = below LLOQ, read-out: plasma concentration, individual): 19.7 nM
- concentration at 10 h (oral, 200 mL, participant rrmk, 10 h after coffee, read-out: plasma concentration, individual): 14.4 nM
- concentration at 1 h (oral, 200 mL, participant wbqj, 1 h after coffee, b = below LLOQ, read-out: plasma concentration, individual): 27.5 nM
- concentration at 4 h (oral, 200 mL, participant wbqj, 4 h after coffee, b = below LLOQ, read-out: plasma concentration, individual): 36 nM
- concentration at 10 h (oral, 200 mL, participant wbqj, 10 h after coffee, b = below LLOQ, read-out: plasma concentration, individual): 8.5 nM
- concentration at 1 h (oral, 200 mL, participant wbvs, 1 h after coffee, read-out: plasma concentration, individual): 23.8 nM
- concentration at 4 h (oral, 200 mL, participant wbvs, 4 h after coffee, read-out: plasma concentration, individual): 17.8 nM
- concentration at 10 h (oral, 200 mL, participant wbvs, 10 h after coffee, read-out: plasma concentration, individual): 9.7 nM
- concentration at 1 h (oral, 200 mL, participant xrwz, 1 h after coffee, read-out: plasma concentration, individual): 20.2 nM
- concentration at 10 h (oral, 200 mL, participant xrwz, 10 h after coffee, b = below LLOQ, read-out: plasma concentration, individual): 10.5 nM
- participants in whom plasma concentration increased between 4 and 10 h (individual plots, after first maximum at 1 h): 60%
Structure (SMILES): C=C1C2CCC3C4(C)CC(O)CC(C(=O)OC5OC(C(=O)O)C(O)C(O)C5O)C4CCC3(C2)C1O [M1, atractyligenin-19-O-β-D-glucuronide]
